± gives the expanded uncertainty stated by the source.
Details: 283.15 K, Liquid, Vibrating tube method

FC(C(F)(F)F)C(F)(F)F [1,1,1,2,3,3,3-heptafluoropropane]
Details | mass density [kg/m3]
25072 kPa | 1552.4 ± 1.7
25508 kPa | 1553.7 ± 1.7
25593 kPa | 1553.9 ± 1.7
25630 kPa | 1554.1 ± 1.7
25722 kPa | 1554.3 ± 1.7
25865 kPa | 1554.8 ± 1.7
25945 kPa | 1555.1 ± 1.7
25993 kPa | 1555.1 ± 1.7
26030 kPa | 1555.3 ± 1.7
26068 kPa | 1555.4 ± 1.7
26113 kPa | 1555.4 ± 1.7
26152 kPa | 1555.7 ± 1.7
26191 kPa | 1555.8 ± 1.7
26249 kPa | 1555.9 ± 1.7
26283 kPa | 1556 ± 1.7
26327 kPa | 1556.3 ± 1.7
26367 kPa | 1556.3 ± 1.7
26406 kPa | 1556.2 ± 1.7
26446 kPa | 1556.3 ± 1.7
26479 kPa | 1556.8 ± 1.7
26519 kPa | 1556.7 ± 1.7
26559 kPa | 1556.8 ± 1.7
26599 kPa | 1557 ± 1.7
26650 kPa | 1557.1 ± 1.7
26683 kPa | 1557.3 ± 1.7
26723 kPa | 1557.3 ± 1.7
26757 kPa | 1557.3 ± 1.7
26796 kPa | 1557.5 ± 1.7
26886 kPa | 1557.8 ± 1.7
26921 kPa | 1557.9 ± 1.7
26968 kPa | 1558.1 ± 1.7
27001 kPa | 1558.1 ± 1.7
27029 kPa | 1558.2 ± 1.7
27058 kPa | 1558.3 ± 1.7
27082 kPa | 1558.3 ± 1.7
27131 kPa | 1558.5 ± 1.7
27170 kPa | 1558.7 ± 1.7
27199 kPa | 1558.8 ± 1.7
27228 kPa | 1558.8 ± 1.7
27271 kPa | 1558.9 ± 1.7
27533 kPa | 1559.8 ± 1.7
27563 kPa | 1559.9 ± 1.7
27596 kPa | 1559.8 ± 1.7
27629 kPa | 1560 ± 1.7
27673 kPa | 1560 ± 1.7
27710 kPa | 1560.2 ± 1.7
27743 kPa | 1560.2 ± 1.7
27816 kPa | 1560.5 ± 1.7
27850 kPa | 1560.7 ± 1.7
27880 kPa | 1560.8 ± 1.7
27914 kPa | 1560.8 ± 1.7
27940 kPa | 1560.9 ± 1.7
27979 kPa | 1561 ± 1.7
28024 kPa | 1561.2 ± 1.7
28058 kPa | 1561.1 ± 1.7
28091 kPa | 1561.4 ± 1.7
28124 kPa | 1561.5 ± 1.7
28168 kPa | 1561.6 ± 1.7
28466 kPa | 1562.5 ± 1.7
28514 kPa | 1562.7 ± 1.7
28558 kPa | 1562.7 ± 1.7
28591 kPa | 1562.8 ± 1.7
28620 kPa | 1562.8 ± 1.7
28657 kPa | 1562.9 ± 1.7
28690 kPa | 1563.1 ± 1.7
28727 kPa | 1563.2 ± 1.7
28761 kPa | 1563.3 ± 1.7
28795 kPa | 1563.4 ± 1.7
28837 kPa | 1563.6 ± 1.7
28875 kPa | 1563.5 ± 1.7
29088 kPa | 1564.2 ± 1.7
29357 kPa | 1565 ± 1.7
29424 kPa | 1565.2 ± 1.7
29452 kPa | 1565.2 ± 1.7
29578 kPa | 1565.7 ± 1.8
29617 kPa | 1565.6 ± 1.8
29646 kPa | 1565.8 ± 1.8
29684 kPa | 1565.9 ± 1.8
29712 kPa | 1565.9 ± 1.8
29745 kPa | 1566.1 ± 1.8
29784 kPa | 1566.2 ± 1.8
29814 kPa | 1566.3 ± 1.8
29853 kPa | 1566.4 ± 1.8
29877 kPa | 1566.5 ± 1.8
29911 kPa | 1566.5 ± 1.8
29944 kPa | 1566.6 ± 1.8
29974 kPa | 1566.7 ± 1.8
30021 kPa | 1566.8 ± 1.8
30050 kPa | 1567 ± 1.8
30079 kPa | 1567 ± 1.8
30151 kPa | 1567.2 ± 1.8
30190 kPa | 1567.4 ± 1.8
30219 kPa | 1567.5 ± 1.8
30259 kPa | 1567.4 ± 1.8
30288 kPa | 1567.5 ± 1.8
30323 kPa | 1567.7 ± 1.8
30361 kPa | 1567.8 ± 1.8
30390 kPa | 1567.7 ± 1.8
30425 kPa | 1567.9 ± 1.8
30460 kPa | 1567.9 ± 1.8
30499 kPa | 1568.2 ± 1.8
30529 kPa | 1568.3 ± 1.8

From the NIST ThermoML archive (doi:10.1021/je700260f)
